Active and inactive are the calls of the source. No cut-off for these calls is given here.
Columns and labels:
[1] = system: Huh-7; test: cells; settings: Homo sapiens, Huh-7, 48 h, read-out: INH
Description: Anticancer activity against human Huh-7 cells assessed as inhibition of cell viability at 8 uM incubated for 48 hrs by CCK-8 assay (Rvb = 0 +/- 0.88 %)

[2] = biological target: T1, Lysine-specific demethylase 4D (Homo sapiens, UniProt Q6B0I6); test: Inhibition of KDM4D (unknown origin) incubated for 60 mins by microplate reader analysis
T1 sequence (Q6B0I6 whole entry): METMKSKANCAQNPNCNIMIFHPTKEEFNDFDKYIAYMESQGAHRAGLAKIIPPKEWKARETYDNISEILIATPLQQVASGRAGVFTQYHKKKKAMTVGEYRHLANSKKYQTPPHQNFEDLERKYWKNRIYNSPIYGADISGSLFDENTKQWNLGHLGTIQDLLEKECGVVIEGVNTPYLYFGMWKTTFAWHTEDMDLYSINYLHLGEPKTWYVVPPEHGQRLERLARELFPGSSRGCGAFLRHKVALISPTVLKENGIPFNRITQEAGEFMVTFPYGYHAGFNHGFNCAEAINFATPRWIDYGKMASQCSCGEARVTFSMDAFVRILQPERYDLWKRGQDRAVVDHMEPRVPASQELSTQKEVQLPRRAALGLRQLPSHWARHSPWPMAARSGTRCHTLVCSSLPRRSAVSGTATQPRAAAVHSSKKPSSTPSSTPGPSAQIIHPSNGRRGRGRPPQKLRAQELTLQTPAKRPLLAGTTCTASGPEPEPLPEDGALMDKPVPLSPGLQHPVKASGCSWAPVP

[3] = system: Huh-7; test: Inhibition of colony formation in human Huh-7 cells at 2 uM incubated for 72 hrs followed by compound washout and measured after 10 days by crystal violet staining based assay; type: functional, cell-based
[4] = system: Huh-7; test: Inhibition of cell migration in human Huh-7 cells at 2 uM measured for 24 hrs by wound healing assay; type: functional, cell-based
[5] = system: Huh-7; test: Induction of cell cycle arrest in human Huh-7 cells assessed as decrease in accumulation of cells at S phase at 2 uM by flow cytometry analysis; type: functional, cell-based
[6] = system: Huh-7; test: Downregulation of CyclinD1 expression in human Huh-7 cells by Western blot analysis; type: functional, cell-based
[7] = system: Huh-7; test: Induction of cell cycle arrest in human Huh-7 cells assessed as increase in accumulation of cells at G1 phase at 2 uM by flow cytometry analysis; type: functional, cell-based
[8] = system: Huh-7; settings: Homo sapiens, Huh-7, 48 h
[9] = system: Huh-7; test: Induction of cell cycle arrest in human Huh-7 cells assessed as decrease in accumulation of cells at G2/M phase at 2 uM by flow cytometry analysis; type: functional, cell-based
[10] = system: Huh-7; test: Downregulation of c-Myc expression in human Huh-7 cells by Western blot analysis; type: functional, cell-based

SMILES	IC50 [2]	inhibition at 8 µM [1]	other results
S=C(Nc1ccc2nc(-c3ccc(Br)o3)c(-c3ccc(Br)o3)nc2c1)N1CCCCCC1	5.98 µM	25.8%	–
Fc1ccc(CNC(=S)Nc2ccc3nc(-c4ccccn4)c(-c4ccccn4)nc3c2)cc1	> 50 µM	37.8%	–
S=C(NCc1ccccn1)Nc1ccc2nc(-c3ccccn3)c(-c3ccccn3)nc2c1	> 50 µM	30.3%	–
S=C(NCc1ccccn1)Nc1ccc2nc(-c3ccc(Br)o3)c(-c3ccc(Br)o3)nc2c1	13 µM	38.1%	–
Fc1ccc(CNC(=S)Nc2ccc3nc(-c4cccs4)c(-c4cccs4)nc3c2)cc1	> 50 µM	41.8%	–
O=C1CCCN(C(=S)Nc2ccc3nc(-c4ccco4)c(-c4ccco4)nc3c2)CC1	3.97 µM	29.5%	–
S=C(NCc1ccncc1)Nc1ccc2nc(-c3ccccn3)c(-c3ccccn3)nc2c1	> 50 µM	39.8%	–
Cc1ccc(-c2nc3ccc(NC(=S)N4CCCCCC4)cc3nc2-c2ccc(C)o2)o1	0.62 µM	55.5%	inhibition [3]: Active; inhibition [4]: Active; Activity [5]: Active; Activity [6]: Active; Activity [7]: Active; IC50 [8]: 5.23 µM; Activity [9]: Active; Activity [10]: Active
Fc1ccc(CNC(=S)Nc2ccc3nc(-c4ccc(Br)s4)c(-c4ccc(Br)s4)nc3c2)cc1	> 50 µM	28.5%	–
S=C(Nc1ccccc1)Nc1ccc2nc(-c3ccco3)c(-c3ccco3)nc2c1	4.81 µM	25.6%	–
S=C(Nc1ccc2nc(-c3ccc(Br)s3)c(-c3ccc(Br)s3)nc2c1)N1CCCCCC1	> 50 µM	41.5%	–
S=C(Nc1ccc2nc(-c3ccccn3)c(-c3ccccn3)nc2c1)N1CCCCCC1	> 50 µM	39.1%	–
S=C(Nc1ccc2nc(-c3ccco3)c(-c3ccco3)nc2c1)c1ccccc1	25.6 µM	33.8%	–
O=C(Nc1ccccc1)C(=S)Nc1ccc2nc(-c3ccco3)c(-c3ccco3)nc2c1	7.16 µM	19.7%	–

Continued by falling IC50 [2], values first:

IC50 [2]	SMILES	inhibition at 8 µM [1]	other results
3.8 µM	S=C(Nc1ccc2nc(-c3ccco3)c(-c3ccco3)nc2c1)N1CCOCC1	30%	–
3.7 µM	O=C(Nc1ccccc1)Nc1ccc2nc(-c3ccco3)c(-c3ccco3)nc2c1	24.2%	–
3.66 µM	O=[N+]([O-])c1ccc(CNC(=S)Nc2ccc3nc(-c4ccco4)c(-c4ccco4)nc3c2)cc1	19.4%	–
3.23 µM	Fc1ccc(CNC(=S)Nc2ccc3nc(-c4ccco4)c(-c4ccco4)nc3c2)cc1	33%	–
3.12 µM	COc1ccc(CNC(=S)Nc2ccc3nc(-c4ccco4)c(-c4ccco4)nc3c2)cc1	32.9%	–
2.95 µM	O=C(Nc1ccc2nc(-c3ccco3)c(-c3ccco3)nc2c1)N1CCCCCC1	32.8%	–
2.63 µM	CCCCNC(=S)Nc1ccc2nc(-c3ccco3)c(-c3ccco3)nc2c1	30.7%	–
2.46 µM	S=C(Nc1ccc2nc(-c3ccco3)c(-c3ccco3)nc2c1)Nc1ccccn1	16%	–
2.41 µM	COC(=O)CCCNC(=S)Nc1ccc2nc(-c3ccco3)c(-c3ccco3)nc2c1	20.2%	–
2.31 µM	S=C(Nc1ccc2nc(-c3ccco3)c(-c3ccco3)nc2c1)N1CCCCCC1	33.3%	–
